# According to patent US12233073B2, “Skin care formulations and skin cancer treatment” (Regents of the University of Minnesota, priority 2017, dated 2025):
# Where two headings read alike, the source gives them in different places.
# Assays:
# [1] = tested on: SSL-induced skin tumors in SKH-1 hairless mice
# Description: The effectiveness of different candidate compounds in preventing sUV-induced cancer was evaluated. SKH-1 hairless mice (Charles River, Burlington, Massachusetts) were treated with formulations including one or more candidate compounds and exposed to SSL (solar simulated light). Female mice aged 5-6 weeks at the beginning of the study were used. The mice were exposed to SSL three times a week for 15 weeks from the beginning of the study. At week 1, the SSL dose included 37 kJ/m^2 UVA and 1.8 kJ/m^2 UVB three times per week. […] At week 6, the dose included 60 kJ/m^2 UVA and 2.9 kJ/m^2 UVB and this dose was maintained until week 15 at which time SSL exposure was stopped. Each mouse received a topical application (on the dorsal skin surface posterior to the base of the neck and anterior to the base of the tail) of one or more candidate compounds in a base cream one hour before SSL exposure. 15 weeks onwards, the mice were no longer exposed to SSL but the topical application of cream with sunscreen compounds was continued until 30 weeks. Control mice received topical application of cream with sunscreen compounds but no SSL.
# Tumors were counted by sight. The dimensions of each tumor were measured using a digital caliper. Tumor volume (mm^3) was determined as (length×width^2)×0.52, where the length and width were measured in mm. […] Average or total tumor volumes were compared between vehicle (cream)-treated mice exposed to SSL and compound in cream-treated mice exposed to SSL.
# [2] = tested on: skin of SKH-1 hairless mice; assay: H&E staining of skin of mice treated with anti-sUV agents; format: in vivo, mouse; conditions: solar UV-exposed groups G13-G24
# Description: FIG. 40 is a photograph comparing H&E (hematoxylin and eosin) stained tissue sample of mice exposed to solar ultraviolet and treated with anti-sUV agents and mice unexposed to solar ultraviolet. H&E staining can show skin damage (see TABLE 5 for group identification). […] None of the compounds in the absence of solar UV caused any damage and none had any adverse effect on skin thickness. G11 and G12 are the positive controls, being groups treated with solar UV without or with vehicle (cream).
# Ki-67 = Ki-67 immunohistological staining of skin of mice treated with anti-sUV agents; format: in vivo, mouse; conditions: solar UV-exposed groups
# Description: FIG. 41 is a photograph comparing Ki-67 immunohistological-stained tissue samples of mice exposed to solar ultraviolet and treated with anti-sUV agents and mice unexposed to solar ultraviolet.
# [3] = following one hour of exposure to sunlight; cited from earlier work
# [4] = SSL-exposed, compound in cream, percent per TABLE 5
# [5] = SSL-exposed, compound in cream, percent per TABLE 5, 15 mice
# [6] = female, SKH-1 hairless, mouse, in vivo, 30 weeks
# [7] = no SSL exposure, compound in cream, percent per TABLE 5
Compound,"% Effective Protection (% reduction in tumor volume vs SSL with cream only) [1, 4] [%]","% Mice with tumor [1, 5] [%]","% Mortality [1, 5]","Average volume of tumors [1, 5] [mm^3]","Avg. no. of tumors [1, 5]","Number of dead mice [1, 5]","Total no. of tumors [1, 5]","Total volume of tumors [1, 5] [mm^3]","% Mice with tumor [1, 6] [%]","% Mortality/Number of dead mice [1, 7]","Total/Average volume of tumors [1, 7]","Total/Avg. no. of tumors [1, 7]",H&E staining: epidermal thickening and skin damage [2],"% Mice with tumor ([1]; no SSL exposure, compound in cream, percent per TABLE 5, 30 weeks) [%]",Ki-67 staining: abnormal cell proliferation (Ki-67),"% Mice with tumor ([1]; mouse, in vivo) [%]",change in UV absorbance [3]
CCCCC(CC)COC(=O)c1ccccc1O (centres unmarked) [Octisalate],70.1,100,66.7%,50.6,2.6,10,39,758.4,0,0,0,0,epidermal thickening and skin damage,,,,
CCCCC(CC)COC(=O)C(C#N)=C(c1ccccc1)c1ccccc1 (centres unmarked) [Octocrylene],90.3,66.7,0/0%,16.5,1.7,0/0,25,246.7,0,0,0,0,epidermal thickening and skin damage,,,,
[O]=[Zn] [Zinc oxide],,6.7,0/0%,0.8,0.13,0/0,2,11.2,,0,0,0,most protected,0,least amount of abnormal proliferation,,
Titanium dioxide,89.2,100,13.3%,18.4,2.6,2,39,275.6,,0,0,0,epidermal thickening and skin damage,,,0,
CC1CC(OC(=O)c2ccccc2O)CC(C)(C)C1 (centres unmarked) [Homosalate],83.6,80,6.7%,27.7,2.6,1,39,415.7,0,0,0,0,intense damage,,extensive abnormal proliferation,,
COc1ccc(C(=O)CC(=O)c2ccc(C(C)(C)C)cc2)cc1 [Avobenzone],72.8,93.3,6.7%,46.1,3.7,1,55,691.5,0,0,0,0,epidermal thickening and skin damage,,extensive abnormal proliferation,,approximately 36%
COc1ccc(C(=O)c2ccccc2)c(O)c1 [Oxybenzone],91.2,86.7,6.7%,14.3,2.3,1,35,213.7,0,0,0,0,epidermal thickening but less damage,,,,
CCCCC(CC)COC(=O)C=Cc1ccc(OC)cc1 (centres unmarked) [Octinoxate],93.9,80,13.3%,10.4,1.4,2,21,156.02,0,0,0,0,epidermal thickening but less damage,,,,
